{
  "source": "paper PMC5478727",
  "about": "“A Novel Small Molecule GDNF Receptor RET Agonist, BT13, Promotes Neurite Growth from Sensory Neurons in Vitro and Attenuates Experimental Neuropathy in the Rat” (Frontiers in Pharmacology, 2017)",
  "key": {"[1]": {"target": "cholecystokinin receptor CCK2 (CCKB) (Homo sapiens, UniProt P32239)", "sequence (P32239 whole entry)": "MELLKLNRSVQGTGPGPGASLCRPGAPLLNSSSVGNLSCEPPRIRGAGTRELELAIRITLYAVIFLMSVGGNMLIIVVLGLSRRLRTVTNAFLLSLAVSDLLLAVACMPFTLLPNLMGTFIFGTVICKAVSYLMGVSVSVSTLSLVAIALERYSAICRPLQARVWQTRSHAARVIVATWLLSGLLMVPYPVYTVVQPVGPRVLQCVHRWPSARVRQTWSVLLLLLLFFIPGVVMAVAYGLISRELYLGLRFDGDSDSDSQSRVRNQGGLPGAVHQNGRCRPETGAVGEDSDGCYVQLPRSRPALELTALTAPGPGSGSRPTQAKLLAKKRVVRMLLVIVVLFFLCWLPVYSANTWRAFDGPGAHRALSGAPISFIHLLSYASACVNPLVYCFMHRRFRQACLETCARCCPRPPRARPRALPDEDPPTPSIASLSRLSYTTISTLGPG", "test": "CEREP CCK2 (CCKB) (h) (agonist radioligand)", "type": "binding", "settings": "BT13 1 μM; Cat. No. 0041; average of duplicate; read-out: Percentage of inhibition/potentiation from control"}, "[2]": {"target": "T1, Protein Tyrosine Phosphatase, PTPRC (CD45) (Homo sapiens, UniProt P08575)", "T1 construct": "purchased CEREP (contract screening, standard company protocols) 3956", "T1 sequence (P08575 26-1306)": "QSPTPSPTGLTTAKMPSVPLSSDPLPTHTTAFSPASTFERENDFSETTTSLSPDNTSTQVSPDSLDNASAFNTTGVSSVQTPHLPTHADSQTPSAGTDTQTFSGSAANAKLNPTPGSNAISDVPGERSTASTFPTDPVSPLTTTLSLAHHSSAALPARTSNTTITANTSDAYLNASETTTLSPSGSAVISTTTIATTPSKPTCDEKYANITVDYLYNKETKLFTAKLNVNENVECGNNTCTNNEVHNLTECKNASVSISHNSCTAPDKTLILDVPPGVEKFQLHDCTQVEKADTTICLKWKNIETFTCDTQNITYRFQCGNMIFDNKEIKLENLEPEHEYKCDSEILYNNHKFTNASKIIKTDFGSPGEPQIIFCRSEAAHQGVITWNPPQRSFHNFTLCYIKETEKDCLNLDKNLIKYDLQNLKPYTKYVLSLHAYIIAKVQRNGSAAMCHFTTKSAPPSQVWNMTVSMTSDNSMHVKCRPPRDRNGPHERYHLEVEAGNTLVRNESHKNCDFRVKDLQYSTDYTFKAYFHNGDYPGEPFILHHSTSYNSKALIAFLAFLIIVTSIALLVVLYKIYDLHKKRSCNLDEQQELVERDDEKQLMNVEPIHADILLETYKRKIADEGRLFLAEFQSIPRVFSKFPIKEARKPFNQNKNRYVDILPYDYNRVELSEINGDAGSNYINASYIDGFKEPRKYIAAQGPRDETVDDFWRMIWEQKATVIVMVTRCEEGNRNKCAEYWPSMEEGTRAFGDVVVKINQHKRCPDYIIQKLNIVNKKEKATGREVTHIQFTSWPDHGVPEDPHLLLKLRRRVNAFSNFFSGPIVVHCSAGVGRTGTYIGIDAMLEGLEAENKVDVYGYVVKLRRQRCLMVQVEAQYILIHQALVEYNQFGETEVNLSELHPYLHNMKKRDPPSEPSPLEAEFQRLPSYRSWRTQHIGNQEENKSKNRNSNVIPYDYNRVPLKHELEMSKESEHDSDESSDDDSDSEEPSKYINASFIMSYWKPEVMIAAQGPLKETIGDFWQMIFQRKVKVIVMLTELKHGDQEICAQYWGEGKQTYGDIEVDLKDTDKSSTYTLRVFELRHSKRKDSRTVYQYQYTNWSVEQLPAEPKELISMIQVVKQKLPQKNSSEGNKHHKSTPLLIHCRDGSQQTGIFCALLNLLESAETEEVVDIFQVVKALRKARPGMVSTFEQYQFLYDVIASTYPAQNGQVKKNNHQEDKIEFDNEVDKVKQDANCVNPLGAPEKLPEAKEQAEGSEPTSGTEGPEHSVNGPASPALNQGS", "test": "CEREP Protein Tyrosine Phosphatase, PTPRC (CD45)", "type": "biochemical", "settings": "BT13 1 μM; Cat. No. 3956; average of duplicate; read-out: Percentage of inhibition/potentiation from control"}, "[3]": {"test_system": "Akt and Erk phosphorylation in MG87TrkB", "test": "Erk1/2 and Akt phosphorylation assay in MG87TrkB cells", "type": "cell-based, murine", "settings": "BT13 10–100 μM, BDNF positive control", "description": "(§1) MG87RET, MG87TrkA, or MG87TrkB were plated on 35 mm tissue culture dishes 1–2 days before the experiment to achieve 90–95% of confluency of the cells at the day of stimulation with tested substances. If necessary, cells were transfected with 4 μg/well of GFRα1-, GFRα3-, or green fluorescent protein (GFP)-expressing plasmid using Lipofectamine 2000 (Invitrogen) for DNA delivery as described by manufacturer. Before the experiment cells were starved in serum-free DMEM containing 15 mM HEPES, pH 7.2 and 1% DMSO for 4 h and stimulated with BT13 or neurotrophic factors. Then cells were washed once with ice-cold PBS containing 1 mM Na3VO4 and 1 mM NaF and lysed on ice in 1 ml per well of RIPA-modified buffer (50 mM Tris-HCl, pH 7.4, 150 mM NaCl, 1 mM EDTA, 1% NP-40, 1% TX-100, 10% glycerol, EDTA-free protease inhibitor cocktail (Roche), 1 mM Na3VO4, 2.5 mg/ml of sodium deoxycholate, 1 mM NaF). Plates were incubated at +4°C on the horizontal shaker for 30 min with vigorous shaking. Afterwards, 80–100 μl aliquot was taken from each well to prepare whole cell lysates. This aliquot was mixed with equal volume of 2x Laemmli loading buffer (4% SDS, 20% glycerol, 10% 2-mercaptoethanol, 0.004% bromphenol blue, 0.125 M Tris HCl, pH 6.8) and boiled for 10 min at 100°C. Remaining cell lysates were used for immunoprecipitation of RET or Trk receptors. […]"}, "[4]": {"target": "T2, adrenergic receptor beta 3 (Homo sapiens, UniProt P13945)", "T2 construct": "purchased CEREP (contract assay) Cat# 3963", "T2 sequence (P13945 whole entry)": "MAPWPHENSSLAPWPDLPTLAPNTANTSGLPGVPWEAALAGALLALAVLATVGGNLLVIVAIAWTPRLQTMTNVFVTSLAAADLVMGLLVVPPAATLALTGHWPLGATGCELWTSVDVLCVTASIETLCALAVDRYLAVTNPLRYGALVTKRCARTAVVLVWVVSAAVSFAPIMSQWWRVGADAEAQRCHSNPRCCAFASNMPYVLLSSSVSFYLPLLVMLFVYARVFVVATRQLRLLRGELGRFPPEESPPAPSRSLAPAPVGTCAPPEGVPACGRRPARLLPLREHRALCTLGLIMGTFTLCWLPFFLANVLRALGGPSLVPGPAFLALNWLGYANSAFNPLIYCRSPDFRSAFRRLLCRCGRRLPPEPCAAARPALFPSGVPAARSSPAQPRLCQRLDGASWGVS", "test": "CEREP Beta 3 (non-selective; antagonist radioligand)", "type": "binding", "settings": "BT13 1 μM; Cat. No. 3963; average of duplicate; read-out: Percentage of inhibition/potentiation from control"}, "neurokinin receptor NK1": {"target": "neurokinin receptor NK1 (Homo sapiens, UniProt P25103)", "sequence (P25103 whole entry)": "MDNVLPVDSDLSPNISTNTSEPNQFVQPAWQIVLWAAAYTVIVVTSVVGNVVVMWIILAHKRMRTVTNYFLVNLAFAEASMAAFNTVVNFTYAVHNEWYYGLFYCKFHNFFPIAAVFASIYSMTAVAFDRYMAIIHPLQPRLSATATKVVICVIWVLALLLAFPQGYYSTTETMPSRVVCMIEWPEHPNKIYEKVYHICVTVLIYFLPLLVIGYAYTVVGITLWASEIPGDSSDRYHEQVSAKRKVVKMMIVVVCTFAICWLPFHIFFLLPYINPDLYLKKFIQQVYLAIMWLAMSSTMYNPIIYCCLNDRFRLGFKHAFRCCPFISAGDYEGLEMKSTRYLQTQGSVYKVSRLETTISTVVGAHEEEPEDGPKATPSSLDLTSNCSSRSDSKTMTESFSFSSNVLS", "test": "CEREP NK1 (h) (agonist radioligand)", "type": "binding", "settings": "BT13 1 μM; Cat. No. 0100; average of duplicate; read-out: Percentage of inhibition/potentiation from control"}, "CYP2C19": {"target": "T3, CYP2C19 (Homo sapiens, UniProt P33261)", "T3 construct": "Cyathus Exquirere (contract laboratory)", "T3 sequence (P33261 whole entry, canonical isoform)": "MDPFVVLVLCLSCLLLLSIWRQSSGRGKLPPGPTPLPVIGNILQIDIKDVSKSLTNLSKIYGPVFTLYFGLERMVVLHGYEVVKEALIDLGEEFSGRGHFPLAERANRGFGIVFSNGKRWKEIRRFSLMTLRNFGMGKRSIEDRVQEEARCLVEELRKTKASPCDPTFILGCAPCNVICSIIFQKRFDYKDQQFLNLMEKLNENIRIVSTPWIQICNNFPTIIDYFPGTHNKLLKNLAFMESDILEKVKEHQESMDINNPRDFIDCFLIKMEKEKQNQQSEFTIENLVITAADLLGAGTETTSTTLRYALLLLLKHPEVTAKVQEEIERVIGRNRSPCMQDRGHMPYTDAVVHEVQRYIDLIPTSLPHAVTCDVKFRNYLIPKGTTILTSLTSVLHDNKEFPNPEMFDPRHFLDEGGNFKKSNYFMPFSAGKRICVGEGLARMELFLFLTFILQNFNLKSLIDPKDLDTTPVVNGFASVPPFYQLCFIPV", "test": "CYP inhibition, fluorescent assay", "type": "biochemical", "settings": "read-out: Inhibition of CYP isoforms (IC50), CYP2C19"}, "TrkB": {"target": "T4, TrkB (Rattus norvegicus, UniProt Q63604)", "T4 construct": "expressed in transfected cells; host or cells: MG87 murine fibroblasts (MG87TrkB)", "T4 sequence (Q63604 32-821)": "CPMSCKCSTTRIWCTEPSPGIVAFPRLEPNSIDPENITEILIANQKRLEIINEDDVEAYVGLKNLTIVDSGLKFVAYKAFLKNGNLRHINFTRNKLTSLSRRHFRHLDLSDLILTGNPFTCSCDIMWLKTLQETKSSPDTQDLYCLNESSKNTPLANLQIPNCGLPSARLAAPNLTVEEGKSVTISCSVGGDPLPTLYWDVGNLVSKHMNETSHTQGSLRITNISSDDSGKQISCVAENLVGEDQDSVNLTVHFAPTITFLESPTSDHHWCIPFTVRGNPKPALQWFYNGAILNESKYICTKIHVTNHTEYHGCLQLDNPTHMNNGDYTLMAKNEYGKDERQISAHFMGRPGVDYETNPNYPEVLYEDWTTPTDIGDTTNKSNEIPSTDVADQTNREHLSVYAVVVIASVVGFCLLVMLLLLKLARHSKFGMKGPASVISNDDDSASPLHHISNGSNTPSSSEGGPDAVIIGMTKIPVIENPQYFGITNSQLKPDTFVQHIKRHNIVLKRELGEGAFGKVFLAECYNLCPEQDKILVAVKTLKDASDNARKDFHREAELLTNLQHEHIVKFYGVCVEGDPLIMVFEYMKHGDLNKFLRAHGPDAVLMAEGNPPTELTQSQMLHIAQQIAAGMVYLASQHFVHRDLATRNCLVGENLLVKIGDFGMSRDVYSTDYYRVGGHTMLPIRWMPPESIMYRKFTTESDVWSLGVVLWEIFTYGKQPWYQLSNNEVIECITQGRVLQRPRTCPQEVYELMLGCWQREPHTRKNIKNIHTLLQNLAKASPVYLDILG", "test": "TrkB phosphorylation assay in MG87TrkB cells", "type": "cell-based", "settings": "BT13 10–100 μM, BDNF positive control", "description": "as §1"}, "CYP3A4": {"target": "T5, CYP3A4 (Homo sapiens, UniProt P08684)", "T5 construct": "Cyathus Exquirere (contract laboratory)", "T5 sequence (P08684 whole entry, canonical isoform)": "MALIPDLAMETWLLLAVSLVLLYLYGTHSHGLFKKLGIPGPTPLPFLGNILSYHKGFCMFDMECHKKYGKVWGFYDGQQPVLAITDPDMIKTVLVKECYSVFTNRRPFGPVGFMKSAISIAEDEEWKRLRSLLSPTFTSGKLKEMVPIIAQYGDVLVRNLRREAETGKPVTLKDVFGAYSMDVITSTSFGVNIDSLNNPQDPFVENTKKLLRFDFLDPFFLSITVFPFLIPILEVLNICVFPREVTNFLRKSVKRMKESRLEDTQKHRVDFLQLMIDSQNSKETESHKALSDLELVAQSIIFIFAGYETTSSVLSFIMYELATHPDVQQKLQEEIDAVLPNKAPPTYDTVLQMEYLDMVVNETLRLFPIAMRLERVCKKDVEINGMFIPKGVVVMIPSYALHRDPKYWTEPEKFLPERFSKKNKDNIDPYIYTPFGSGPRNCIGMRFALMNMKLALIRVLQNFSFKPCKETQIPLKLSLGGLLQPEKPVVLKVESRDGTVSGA", "test": "CYP inhibition, fluorescent assay", "type": "biochemical", "settings": "read-out: Inhibition of CYP isoforms (IC50), CYP3A4"}, "[5]": {"target": "Ca2+ channel (L, diltiazem site) (Rattus norvegicus, UniProt P22002)", "test": "CEREP Ca2+ channel (L, diltiazem site) (benzothiazepines) (antagonist radioligand)", "type": "binding", "settings": "BT13 1 μM; Cat. No. 0162; average of duplicate; read-out: Percentage of inhibition/potentiation from control"}},
  "data": [
    {"molecule": "CCN(CC)S(=O)(=O)c1ccc(OC)c(N2CCN(C(=O)c3ccc(F)cc3C(F)(F)F)CC2)c1", "note": "[BT13]", "values": [
      {"measurement": "inhibition at 1 µM", "setting": "[1]", "value": 1, "unit": "%"},
      {"measurement": "inhibition at 1 µM", "setting": "[2]", "value": -3, "unit": "%"},
      {"measurement": "Akt and Erk phosphorylation", "setting": "[3]", "value": "no Akt or Erk phosphorylation was observed"},
      {"measurement": "inhibition at 1 µM", "setting": "[4]", "value": -5, "unit": "%"},
      {"measurement": "inhibition at 1 µM", "setting": "neurokinin receptor NK1", "value": -19, "unit": "%"},
      {"measurement": "IC50", "setting": "CYP2C19", "value": "> 100", "unit": "µM"},
      {"measurement": "TrkB phosphorylation, Western blotting", "setting": "TrkB", "value": "did not produce any detectable increase"},
      {"measurement": "IC50", "setting": "CYP3A4", "value": "3.2 ± 0.42", "unit": "µM"},
      {"measurement": "inhibition at 1 µM", "setting": "[5]", "value": 16, "unit": "%"}
    ]}
  ]
}
